Source: article PMC8480901 (PLoS ONE, 2021)
Where “and” joins values, the source holds several entries; their conditions need not be identical. Equal values may be shown once.

Experiments:
[1] = tested on: LPS-induced lung neutrophilia; assay: LPS-induced lung neutrophilia: total and neutrophil cell counts in BALF; assay type: in vivo, BALB/c mice; settings: LPS; for Neutrophils in BALF, Mean / Total cells/white blood cells in BALF, Mean / Neutrophils in BALF, individual mice / Total cells/white blood cells in BALF, individual mice: BALF 4 h after LPS
Description: Six-week-old male BALB/c mice (Charles River, Calco, Italy) were singly housed in a temperature-controlled (22°C±2°C) environment with a 12:12-hour light:dark cycle and free access to food and water. Mice were given ≥7 days for acclimation before all procedures. […] One day before the start of experimental procedures, all animals were randomized into 6 groups (n = 8/group). Animal group assignment was not blinded.
LPS lyophilized powder (2 mg; Sigma-Aldrich Chemie GmbH, Munich, Germany) from Escherichia coli (O111:B4) was dissolved in 10 mL cold saline (0.9%; Pliva, Zagreb, Croatia), vortexed, and further diluted by mixing 2 mL of this solution with 2 mL saline to reach a final concentration of 5 μg LPS/50 μL saline. […] Ketamine hydrochloride (Narketan 10) was acquired from Vetoquinol (Bern, Switzerland), and xylazine hydrochloride (Rompun, 2%) was acquired from Bayer (Leverkusen, Germany).
To induce pulmonary neutrophilia, mice in the control group received intranasal (IN) 50 μL saline, and all other animals received 5 μg LPS/50 μL saline IN per mouse.
Tracheostomy was performed, and a Buster cat catheter (1.0 × 130 mm; Kruuse, Langeskov, Denmark), shortened to 3 cm, was clamped into the trachea. The lungs were washed 3 times with cold phosphate-buffered saline (PBS; Sigma-Aldrich Chemie GmbH) in a total volume of 1 mL (0.4, 0.3, and 0.3 mL). The collected BALF samples were centrifuged (1303×g, 5 min, 4°C), and resulting cell pellets were each resuspended in 600 μL PBS. Samples were immediately analyzed for total and differential neutrophil cell counts via automated hematology analyzer (XT-2000iV; Sysmex, Kobe, Japan).
Differences between treated versus vehicle groups were determined using the Mann-Whitney test and were considered statistically significant when P<0.05. Outliers in the analysis of cytokine and chemokine concentrations were identified using the Grubbs test. No criteria were set for inclusion/exclusion of animals during the experiment or data points during the analysis.

[2] = tested on: LPS-induced acute lung injury; settings: pretreated mice vs no-treatment control group; cited from earlier work
[3] = Experiment 1, 1 mg/kg (IP), 1 mg/kg
[4] = Experiment 2, 0.5 mg/kg (PO), 0.5 mg/kg

## C[C@@H]1C[C@H]2[C@@H]3CCC4=CC(=O)C=C[C@]4(C)[C@@]3(F)[C@@H](O)C[C@]2(C)[C@@]1(O)C(=O)CO [Dexamethasone]
[1]; Experiment 1, 1 mg/kg (IP)
  Neutrophils in BALF: % reduction: 47%
  Total cells/white blood cells in BALF: % reduction: 75%
  Neutrophils in BALF, Mean: 2.8e+08 L⁻¹
  Total cells/white blood cells in BALF, Mean: 4.3e+08 L⁻¹
[1]; [3]
  Neutrophils in BALF, individual mice: 2.5e+08 L⁻¹ and 1.2e+08 L⁻¹ and 2.9e+08 L⁻¹ and 2.6e+08 L⁻¹ and 3e+08 L⁻¹ and 3.9e+08 L⁻¹ and 3.1e+08 L⁻¹
  Total cells/white blood cells in BALF, individual mice: 3.9e+08 L⁻¹ and 3.8e+08 L⁻¹ and 4.1e+08 L⁻¹ and 2.3e+08 L⁻¹ and 4.5e+08 L⁻¹ and 5.2e+08 L⁻¹ and 6.3e+08 L⁻¹
[1]; Experiment 2, 0.5 mg/kg (PO)
  Neutrophils in BALF: % reduction: 61%
  Total cells/white blood cells in BALF: % reduction: 78%
  Neutrophils in BALF, Mean: 2.4e+08 L⁻¹
  Total cells/white blood cells in BALF, Mean: 5e+08 L⁻¹
[1]; [4]
  Neutrophils in BALF, individual mice: 2.5e+08 L⁻¹ and 2e+08 L⁻¹ and 3.4e+08 L⁻¹ and 1.9e+08 L⁻¹ and 2.3e+08 L⁻¹ and 3.1e+08 L⁻¹ and 1.7e+08 L⁻¹
  Total cells/white blood cells in BALF, individual mice: 7e+08 L⁻¹ and 2.9e+08 L⁻¹ and 5.5e+08 L⁻¹ and 4.4e+08 L⁻¹ and 7.7e+08 L⁻¹ and 3.6e+08 L⁻¹
[2]
  LPS-induced pulmonary edema, accumulation of inflammatory cells in BALF, and increased inflammatory cytokines (eg, TNF-α and IL-6): significantly attenuated
